This note sets out measurements from ChEMBL document CHEMBL3886673, “Tetracyclic CDK9 kinase inhibitors” (2016).

This assay concerns the target Cyclin-dependent kinase 9 (Homo sapiens, UniProt P50750). The experiment in a line: LANCE ULight TR-FRET Kinase Assay : CDK9 enzyme activities were measured using LANCE ULight TR-FRET kinase assay reagents (PerkinElmer, Waltham, Mass.). Compounds were diluted in 100% DMSO then diluted with 1:10 in serine/threonine kinase assay buffer containing 20 mM HEPES, 10 mM MgCl2, 100 mM Na3VO4, and 0.0075% Triton X-100. Equal volume of the compound dilutions was added to a final reaction mixture containing LANCE detection buffer (PerkinElmer CR97-100), 100 nM ULight MBP (PerkinElmer TRF0109M), 1000 μM ATP, and CDK9/Cyclin T1 (Carna Biosciences 04-110). The kinase reaction was carried out for 1 hour before addition of stopping buffer to a final of 20 mM EDTA and 0.5 nM of LANCE Ultra Europium anti-phospho-MBP antibody (PerkinElmer TRF0201M) in LANCE detection buffer. The reaction was incubated for 1 hour and the signal was read in Envision in TR-FRET mode (excitation at 320 nm and emission at 615/665 nm). On the technique in general: Time-resolved FRET reads energy transfer from a long-lived donor to a nearby acceptor.

Cyclin-dependent kinase 9, sequence (P50750 whole entry): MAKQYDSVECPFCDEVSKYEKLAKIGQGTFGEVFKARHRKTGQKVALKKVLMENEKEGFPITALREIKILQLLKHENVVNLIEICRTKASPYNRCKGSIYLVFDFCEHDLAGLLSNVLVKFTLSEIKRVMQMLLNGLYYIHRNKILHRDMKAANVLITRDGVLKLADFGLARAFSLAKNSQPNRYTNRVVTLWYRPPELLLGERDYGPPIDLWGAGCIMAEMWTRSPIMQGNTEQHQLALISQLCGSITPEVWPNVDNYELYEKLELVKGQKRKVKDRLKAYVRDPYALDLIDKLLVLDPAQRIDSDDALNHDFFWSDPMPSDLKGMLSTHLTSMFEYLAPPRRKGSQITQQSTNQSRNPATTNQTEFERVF

One may read the IC50 as the concentration at which inhibition is half-maximal. `CN(CCO)C(=O)CN1CC=C(c2[nH]c3ncc(F)c4c3c2CN(C)c2ccc(F)cc2-4)CC1`: the IC50 was 100 nM. With `CN1Cc2c(C3=CCN(C(=O)OC(C)(C)C)CC3)[nH]c3nccc(c23)-c2cc(F)ccc21`, the IC50 is 230 nM. Next, `CNC(=O)N1CC=C(c2[nH]c3nccc4c3c2CN(C)c2ccc(F)cc2-4)CC1`: 30 nM; `CN1Cc2c(C3=CCN(S(C)(=O)=O)CC3)[nH]c3ncc(F)c(c23)-c2cc(F)ccc21`: 38 nM.
